Assay results reported in PMC8659006 (Molecules, 2021).
Values after ≈ are worked out from the molar mass of the structure shown. Like-named read-outs stand apart in the source and are kept apart here. Where no end group is shown, it is not given here.

Experiments:
P.aeruginosa 337005 = assay type: cell-based, Pseudomonas aeruginosa
Protocol: (§1) The reference strains P. aeruginosa 337005, S. aureus 1882 and ETEC K88 were cultivated at 37 °C for 12 h. […] Then, 180 µL MH broth per well were added to the microtiter plate (Corning, Corning, NY, USA), and then 2 µL of the diluted bacterial solution was dispensed into each well. Peptides were then serially diluted with Milli-Q water, and 20 µL dilutions were added to the wells. Then, 2 µL Milli-Q water instead of 2 µL diluted bacterial solution was used as a blank control, and 20 µL Milli-Q water instead of 20 µL peptide dilution was used as a growth control. After culturing for 12 h at 37 °C, the MIC of the reference strain was observed, and the experiment was performed in three independent replicates.

[1] = test system: P. aeruginosa 337005, S. aureus 1882 and ETEC K88; assay type: cell-based
Protocol: as §1

human erythrocytes = details: 90 µg/mL; cited from earlier work
Description: The low hemolytic activity of antimicrobial peptides on mammalian red blood cells is very important in clinical applications.

S. aureus 1882 = assay type: cell-based, Staphylococcus aureus
Protocol: as §1

ETEC K88 [2] = assay: MIC, microbroth dilution; assay type: cell-based, Enterotoxigenic Escherichia coli; details: micro-dilution in MH broth, 37 °C, 12 h, three independent replicates
Protocol: as §1

ETEC K88 [3] = assay: Propidium iodide uptake (membrane permeabilization); assay type: cell-based, Enterotoxigenic Escherichia coli; details: 100% = 0.05% SDS, average of 3 replicates
Protocol: PI can stain DNA, but cannot penetrate the complete cell membrane. Therefore, the fluorescence intensity of PI is positively correlated with the degree of cell membrane damage. The reference strain ETEC K88 was cultured at 37 °C for 12 h, and then diluted to 5 × 10^5 CFU/mL. Then, 10 µg/mL PI (Thermo Fisher, Waltham, MH, USA) was added to the diluted bacterial solution. […] The fluorescence intensity was measured using a microplate reader (Synergy H1, Bio Tek, Winooski, VT, USA) at the excitation wavelength and emission wavelength of 535 nm and 617 nm, respectively. During the continued 120 min reaction, the fluorescence values were monitored every 10 min. The PBS was a negative control, and 0.05% SDS was a positive control.

ETEC K88 [4] = assay: Thermal stability, antibacterial activity by inhibition zone; assay type: physicochemical, Enterotoxigenic Escherichia coli; details: for Antimicrobial activity after heat treatment: n = 3
Protocol: (§2) ETEC K88 was used as a reference strain. […] The experiment was performed in three independent replicates.
(§3) The reference strain was ETEC K88.

ETEC K88 [5] = assay: pH stability, antibacterial activity by inhibition zone; assay type: physicochemical, Enterotoxigenic Escherichia coli; details: pH 4.0 to 9.0, 2 h, n = 3
Protocol: as §2, §3

ETEC K88 [6] = assay: Scanning electron microscopy of treated bacteria; assay type: cell-based, Enterotoxigenic Escherichia coli
Protocol: Scanning electron microscopy (SEM) was used to observe the damage of CLP to bacterial cell membranes. ETEC K88 was incubated at 37 °C for 12 h and then diluted with PBS to 5 × 10^5 CFU/mL. […] The CLP-treated ETEC K88 was washed with PBS and treated with 2.5% glutaraldehyde overnight. After dehydrating with alcohol and drying for gold coating, the samples were imaged by Quanta 200 (FEI).

ETEC K88 [7] = assay: Inhibition zone, Kirby–Bauer diffusion method; assay type: cell-based, Enterotoxigenic Escherichia coli; details: 50 µL on filter disk, 37 °C, 12 h, compared to PBS control and SUMO-TEV-CLP, n = 3
Protocol: as §2

[8] = micro-dilution in MH broth, 37 °C, 12 h, three independent replicates
[9] = range over P. aeruginosa 337005, S. aureus 1882, ETEC K88

For `CC[C@H](C)[C@H](NC(=O)[C@H](CCCCN)NC(=O)[C@H](CCC(=O)O)NC(=O)[C@H](CCCCN)NC(=O)[C@H](CO)NC(=O)[C@H](CCCCN)NC(=O)[C@H](CCCNC(=N)N)NC(=O)[C@H](Cc1ccccc1)NC(=O)[C@H](Cc1ccccc1)NC(=O)[C@H](CC(=O)O)NC(=O)CNC(=O)[C@H](CC(C)C)NC(=O)[C@@H](N)CC(C)C)C(=O)NCC(=O)N[C@@H](CCCCN)C(=O)N[C@@H](CCC(=O)O)C(=O)N[C@@H](Cc1ccccc1)C(=O)N[C@@H](CCCCN)C(=O)N[C@@H](CCCNC(=N)N)C(=O)N[C@H](C(=O)N[C@H](C(=O)N[C@@H](CCC(N)=O)C(=O)N[C@@H](CCCNC(=N)N)C(=O)N[C@H](C(=O)N[C@@H](CCCCN)C(=O)N[C@@H](CC(=O)O)C(=O)N[C@@H](Cc1ccccc1)C(=O)N[C@@H](CC(C)C)C(=O)N[C@@H](CCCNC(=N)N)C(=O)N[C@@H](CC(N)=O)C(=O)N[C@@H](CC(C)C)C(=O)N[C@H](C(=O)N1CCC[C@H]1C(=O)N[C@@H](CCCNC(=N)N)C(=O)N[C@H](C(=O)N[C@@H](CCC(=O)O)C(=O)N[C@@H](CO)C(=O)O)[C@@H](C)O)C(C)C)[C@@H](C)CC)C(C)C)[C@@H](C)CC` [LL37], the MIC (P.aeruginosa 337005; [8]) is listed as 32 µg/mL (≈ 7.12 µM), the “MICs for all the three reference strains (range)” value (“MICs” for short) [1, 9] is listed as 16 to 32 µg/mL and the Hemolysis (human erythrocytes) is listed as “about 30%”. It also gave an MIC (S. aureus 1882; [8]) of 32 µg/mL (≈ 7.12 µM) and an MIC (ETEC K88 [2]) of 16 µg/mL (≈ 3.56 µM).

For “KWKLFKKIIGKEFKRIVQRIKDFLRNLVPRTERKDVT [rCLP]”, the MIC (P.aeruginosa 337005; 337005, 12 h) was 2 µg/mL, the “MICs” value ([1]; 12 h) was 2 to 8 µg/mL and the “Increase of PI fluorescence uptake” value (ETEC K88 [3]; 0.5 × MIC (1 µg/mL), 50 min) was 16.0%. The “Increase of PI fluorescence uptake” value (ETEC K88 [3]; 0.5 × MIC (1 µg/mL), 120 min) was 51.5%, the “Increase of PI fluorescence uptake” value (ETEC K88 [3]; 2 × MIC (4 µg/mL), 50 min) was 83.3% and the “Increase of PI fluorescence uptake” value (ETEC K88 [3]; 2 × MIC (4 µg/mL), 120 min) was 97.0%. For the same molecule, the MIC (S. aureus 1882; 1882, 12 h) was 8 µg/mL, the “Antimicrobial activity after heat treatment” value (ETEC K88 [4]; 70 °C for 30 min) was “almost completely retained” and the “Antimicrobial activity after heat treatment” value (ETEC K88 [4]; temperatures above 70 °C (up to 100 °C), 30 min) was “significantly reduced the activity”. The “Activity maintained throughout pH range” value (ETEC K88 [5]) was “more than 74.8%”, the “Membrane morphology by SEM” value (ETEC K88 [6]) was “damaged the integrity of the bacterial cell membrane” and the “Inhibition zone against ETEC K88” value (ETEC K88 [7]) was “significantly inhibited the growth”.

In the case of “KWKLFKKIIGKEFKRIVQRIKDFLRNLVPRTERKDVT [sCLP]”, the MIC (P.aeruginosa 337005; 337005, 12 h) is reported as 2 µg/mL, the MIC (S. aureus 1882; 1882, 12 h) is reported as 8 µg/mL and the “Stability compared with recombinant CLP” value (ETEC K88 [4]; same temperature, pH value and enzyme treatment) is reported as “almost the same stability”.

With RKDVY [TP5] the “MICs” value [1, 9] was “over 512 µg/mL”.
